{
  "source": "patent US20250250265A1",
  "about": "“BENZOTHIAZOLE-PHENYLSULFONYL-PIPERIDINE ANALOGS AS ACTIVATORS OF NACYLPHOSPHATIDYLETHANOLAMINE HYDROLYZING PHOSPHOLIPASE D” (priority 2022, published 2025)",
  "key": {"[1]": {"test_system": "bone marrow-derived macrophages (BMDM)", "test": "Efferocytosis assay with bone marrow-derived macrophages and apoptotic Jurkat cells", "format": "cell-based, mouse", "conditions": "10 μM, 6 h before assay", "experimental": "Male C57BL6/j wild-type or Napepld^−/− mice were euthanized with isoflurane and hind legs were removed. Marrow was flushed from femurs and tibias using DMEM containing 4.5 g/L glucose and a 26-gauge needle. Cell suspensions were passed over a 40-μm filter, centrifuged at 500×g, and resuspended in 50 ml of DMEM containing 4.5 g/L glucose, 20% L-cell conditioned media, 10% heat-inactivated FBS, and 1% penicillin/streptomycin. 10 ml of cell suspension was plated into each of five 100-mm dishes and incubated for four days at 37° C. and 5% CO2. On day four, non-adherent cells and debris were aspirated from the plates and replaced with fresh media. After 7 days of differentiation, cells were harvested for use in experiments.\nAssays were performed according to previously described protocols. See e.g., Doran et al. J. Clin. Invest. 127(11): 4075-4089 (2017); Proto et al., Immunity 49(4): 666-677 (2018). Bone marrow-derived macrophages were seeded at 0.25×10^6 cells/well in a non-tissue culture-treated 24-well plate and allowed to adhere overnight. Macrophages were treated with various compounds at a final concentration of 10 μM or DMSO as a vehicle for 6 hours prior to each experiment. Jurkat cells were exposed to UV light (254 nm) for 5 minutes to induce apoptosis and then incubated in a 37° C. incubator with 5% CO2 for 2 hours. Surveillance staining of these cells routinely yielded approximately 80-90% apoptosis (Annexin V+) using this method. Apoptotic Jurkat cells were labeled with either CellVue Claret (Millipore Sigma) or Cell Trace Violet (Invitrogen) per the manufacturer's instructions. After staining, cells were resuspended in macrophage medium at a density of […] and 500 μL of this suspension was added to the drug-containing media on the macrophages to achieve a cell ratio of 3:1 Jurkats: macrophages. After incubating for 45 minutes at 37° C. and 5% CO2, the medium was aspirated, and the macrophages were gently washed twice with PBS to remove unbound apoptotic cells. Macrophages were then removed from the plate using Cell Stripper (Sigma), washed, resuspended in staining buffer consisting of 2% FBS in PBS with 2 mM EDTA, and blocked with anti-mouse CD16/32 antibodies for 15 minutes on ice. After blocking, cells were pelleted and resuspended with F4/80. Cells were incubated for 45 minutes on ice in the dark, then washed and resuspended in staining buffer for analysis. Cells were analyzed using an Attune NxT cytometer (Thermo Fisher) and data were analyzed using FlowJo software to quantify the proportion of F4/80^+ macrophages that co-stained for apoptotic cells (% efferocytosis)."}, "[2]": {"biological_target": "T1, NAPE-PLD activity of HepG2 cells (Homo sapiens, UniProt Q6IQ20)", "T1 construct": "endogenous in cells; host or cells: HepG2", "T1 sequence (Q6IQ20 whole entry)": "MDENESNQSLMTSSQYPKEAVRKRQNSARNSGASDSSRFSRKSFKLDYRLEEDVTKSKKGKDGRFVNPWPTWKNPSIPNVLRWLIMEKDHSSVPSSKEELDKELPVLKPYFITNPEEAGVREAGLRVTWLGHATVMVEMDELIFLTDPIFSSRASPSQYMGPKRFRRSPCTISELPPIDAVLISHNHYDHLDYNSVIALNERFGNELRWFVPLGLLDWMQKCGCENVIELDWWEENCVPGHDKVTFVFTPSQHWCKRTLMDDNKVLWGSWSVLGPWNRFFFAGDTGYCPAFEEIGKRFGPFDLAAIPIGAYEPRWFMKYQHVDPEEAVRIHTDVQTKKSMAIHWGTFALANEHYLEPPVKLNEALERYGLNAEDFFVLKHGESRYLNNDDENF", "test": "Cell-based NAPE-PLD activity in HepG2 cells (flame-NAPE)", "conditions": "10 μM", "experimental": "In vitro models of the hepatic steatosis of non-alcoholic fatty liver disease (NAFLD) are well-established, with the primary method being incubation of primary human hepatocytes or hepatocyte cell lines such as HepG2, HuH7, HepaRG, with oleic acid and palmitic acid for 24 to 48 h, then measuring the resulting steatosis, lipid peroxidation, apoptosis, and inflammatory gene expression. Using flame-NAPE to measure NAPE-PLD activity in the human hepatoma HepG2 cell line, the experimental data confirmed that VU534 activated NAPE-PLD in human cells (AC50 940 nM; max % bA 155%). Bithionol (10 μM) reduced HepG2 flame-NAPE hydrolysis by >67%.\n(§1) NAPE-PLD activity was measured in cells as previously described, except that FluoroBrite DMEM (Gibco A1896701) was used as media. See Zarrow et al., J. Lipid Res. 63(1): 100156 (2022). For RAW264.7 assays, PED-A1 (3.6 μM final) was used as the substrate with 10 μM orlistat added to inhibit PLA1 activity, while for HepG2 cells, flame-NAPE was used (with no orlistat added)."}, "[3]": {"biological_target": "T2, NAPE-PLD activity of RAW264.7 macrophages (Mus musculus, UniProt Q8BH82)", "T2 construct": "endogenous in cells; host or cells: RAW264.7", "T2 sequence (Q8BH82 1-396)": "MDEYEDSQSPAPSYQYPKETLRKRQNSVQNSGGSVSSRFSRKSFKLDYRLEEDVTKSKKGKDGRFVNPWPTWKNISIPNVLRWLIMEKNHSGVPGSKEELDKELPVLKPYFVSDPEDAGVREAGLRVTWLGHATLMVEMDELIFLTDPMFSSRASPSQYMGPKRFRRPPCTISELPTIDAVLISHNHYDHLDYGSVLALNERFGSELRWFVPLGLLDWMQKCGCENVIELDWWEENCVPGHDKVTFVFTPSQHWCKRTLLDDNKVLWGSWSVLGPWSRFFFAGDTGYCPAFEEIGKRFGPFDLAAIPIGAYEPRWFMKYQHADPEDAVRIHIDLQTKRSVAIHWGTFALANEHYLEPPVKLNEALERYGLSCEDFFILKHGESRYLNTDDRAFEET", "test": "Cell-based NAPE-PLD activity in RAW264.7 macrophages (PED-A1 with orlistat)", "conditions": "with 20 μM VU534 (FIG. 17C)", "experimental": "as §1"}, "[4]": {"biological_target": "T3, NAPE-PLD activity in primary BMDMϕ (Mus musculus, UniProt Q8BH82)", "T3 construct": "endogenous in cells; host or cells: primary bone-marrow-derived macrophages (C57BL6/j mice)", "T3 sequence (Q8BH82 1-396)": "T2 sequence (Q8BH82 1-396)", "test": "NAPE-PLD activity in primary bone marrow derived macrophages", "format": "cell-based", "conditions": "VU534 at 10 μM (FIG. 5)"}, "[5]": {"biological_target": "T4, recombinant mouse NAPE-PLD (Mus musculus, UniProt Q8BH82)", "T4 construct": "hexahistidine (His6) (C); made in house; host or cells: E. coli", "T4 sequence (Q8BH82 1-396)": "T2 sequence (Q8BH82 1-396)", "test": "In vitro competition assay (LEI-401, VU233, VU534) on recombinant mouse Nape-pld", "format": "biochemical", "experimental": "A similar in vitro fluorescence Nape-pld activity assay was used for LEI-401 and VU233 competition assays except that this assay was performed using black-walled clear-bottom 96-well plates with 3.5 μM PED-A1 and no N-palmitoyl-dioleoyl-PE used as substrate and read in a BioTek Synergy H1 plate reader with the slope of the fluorescence signal from 0-4 min (linear phase) used as the assay readout. LEI-401, VU233, and VU534 were incubated for 1 h prior to addition of PED-A1. The Michaelis-Menten study used this same assay except with graded concentration of flame-NAPE."}},
  "note": "Entries after “also recorded” stand apart in the source; their conditions may differ.",
  "data": [
    {"smiles": "O=C(O)CCCCCCCCCCCNC(=O)NC12CC3CC(CC(C3)C1)C2", "note": "[AUDA, 12-[[(tricyclo[3.3.1.13,7]dec-1-ylamino)carbonyl]amino]-dodecanoic acid, reference compound]", "values": [
      {"measurement": "effect on efferocytosis by wild-type BMDM", "setting": "[1]", "result": "Neither AUDA nor TPPU significantly enhanced efferocytosis"}
    ]},
    {"smiles": "Oc1c(Cl)cc(Cl)cc1Sc1cc(Cl)cc(Cl)c1O", "note": "[bithionol, reference compound]", "values": [
      {"measurement": "reduction of HepG2 flame-NAPE hydrolysis", "setting": "[2]", "result": "> 67", "unit": "%"},
      {"measurement": "effect on efferocytosis by wild-type BMDM", "setting": "[1]", "result": "markedly reduced efferocytosis"},
      {"measurement": "effect on efferocytosis by wild-type BMDM", "setting": "[1]; listed as Bith", "result": "reduced efferocytosis"},
      {"measurement": "effect on increase in RAW264.7 NAPE-PLD activity induced by 20 μM VU534", "setting": "[3]", "result": "blocked in a concentration-dependent manner; also recorded: blocks increased Nape-pld activity"},
      {"measurement": "effect on NAPE-PLD activity in primary BMDM", "setting": "[4]", "result": "inhibits NAPE-PLD activity"}
    ]},
    {"smiles": "CCC(=O)N1CCC(NC(=O)Nc2ccc(OC(F)(F)F)cc2)CC1", "note": "[TPPU, N-[1-(1-Oxopropyl)-4-piperidinyl]-N′-[4-(trifluoromethoxy)phenyl]urea, reference compound]", "values": [
      {"measurement": "effect on efferocytosis by wild-type BMDM", "setting": "[1]", "result": "Neither AUDA nor TPPU significantly enhanced efferocytosis"}
    ]},
    {"smiles": "O=C(NCC1CC1)c1cc(N2CC[C@H](O)C2)nc(N2CCC[C@@H](c3ccccc3)C2)n1", "note": "[LEI-401, reference compound]", "values": [
      {"measurement": "inhibition of mouse NAPE-PLD activity at 100 μM", "setting": "[5]; 100 μM", "result": "nearly complete inhibition"},
      {"measurement": "inhibition of mouse NAPE-PLD activity", "setting": "[5]; graded concentrations (FIG. 19C)", "result": "inhibited mouse NAPE-PLD activity in a concentration-dependent manner"}
    ]}
  ]
}
